From US8962674B2 (Tokyo Institute of Technology, priority 2006, dated 2015)

Structure (SMILES) | melting point
COc1ccc(/C=C/C(=O)CC(=O)/C=C/c2cccc(OC)c2OC)cc1O [CU071, (1E,6E)-1-(2,3-dimethoxyphenyl)-7-(3-hydroxy-4-methoxyphenyl)hepta-1,6-diene-3,5-dione] | 144 to 148 °C
COc1ccc(/C=C/C(=O)CC(=O)/C=C/c2ccc(O)cc2)c(OC)c1 [CU072, (1E,6E)-1-(2,4-dimethoxyphenyl)-7-(4-hydroxyphenyl)hepta-1,6-diene-3,5-dione] | 161 to 167 °C
COc1ccc(/C=C/C(=O)CC(=O)/C=C/c2ccc(O)c(OC)c2)c(OC)c1 [CU073, (1E,6E)-1-(2,4-dimethoxyphenyl)-7-(4-hydroxy-3-methoxyphenyl)hepta-1,6-diene-3,5-dione] | 108 to 113 °C
COc1ccc(/C=C/C(=O)CC(=O)/C=C/c2ccc(OC)c(O)c2)c(OC)c1 [CU074, (1E,6E)-1-(2,4-dimethoxyphenyl)-7-(3-hydroxy-4-methoxyphenyl)hepta-1,6-diene-3,5-dione] | 64 to 70 °C
COc1ccc(OC)c(/C=C/C(=O)CC(=O)/C=C/c2ccc(O)cc2)c1 [CU075, (1E,6E)-1-(2,5-dimethoxyphenyl)-7-(4-hydroxyphenyl)hepta-1,6-diene-3,5-dione] | 70 to 74 °C
COc1ccc(OC)c(/C=C/C(=O)CC(=O)/C=C/c2ccc(O)c(OC)c2)c1 [CU076, (1E,6E)-1-(2,5-dimethoxyphenyl)-7-(4-hydroxy-3-methoxyphenyl)hepta-1,6-diene-3,5-dione] | 127 to 129 °C
COc1ccc(OC)c(/C=C/C(=O)CC(=O)/C=C/c2ccc(OC)c(O)c2)c1 [CU077, (1E,6E)-1-(2,5-dimethoxyphenyl)-7-(3-hydroxy-4-methoxyphenyl)hepta-1,6-diene-3,5-dione] | 63 to 68 °C
COc1cc(/C=C/C(=O)CC(=O)/C=C/c2cccc(O)c2)ccc1O [CU079, (1E,6E)-1-(4-hydroxy-3-methoxyphenyl)-7-(3-hydroxyphenyl)hepta-1,6-diene-3,5-dione] | 74 to 80 °C
COc1ccc(/C=C/C(=O)CC(=O)/C=C/c2cccc(O)c2)cc1O [CU081, (1E,6E)-1-(3-hydroxy-4-methoxyphenyl)-7-(3-hydroxyphenyl)hepta-1,6-diene-3,5-dione] | 200 to 206 °C
COc1cc(/C=C/C(=O)CC(=O)/C=C/c2ccccc2O)ccc1O [CU082, (1E,6E)-1-(4-hydroxy-3-methoxyphenyl)-7-(2-hydroxyphenyl)hepta-1,6-diene-3,5-dione] | 77 to 83 °C
COc1cc(O)ccc1/C=C/C(=O)CC(=O)/C=C/c1ccc(O)cc1 [CU083, (1E,6E)-1-(4-hydroxyphenyl)-7-(4-hydroxy-2-methoxyphenyl)hepta-1,6-diene-3,5-dione] | 105 to 110 °C
COc1ccc(/C=C/C(=O)CC(=O)/C=C/c2ccccc2O)cc1O [CU084, (1E,6E)-1-(2-hydroxyphenyl)-7-(3-hydroxy-4-methoxyphenyl)hepta-1,6-diene-3,5-dione] | 90 to 96 °C
COc1cc(/C=C/C(=O)CC(=O)/C=C/c2ccc(O)cc2OC)ccc1O [CU085, (1E,6E)-1-(4-hydroxy-2-methoxyphenyl)-7-(4-hydroxy-3-methoxyphenyl)hepta-1,6-diene-3,5-dione] | 203 to 208 °C
COc1ccc(/C=C/C(=O)CC(=O)/C=C/c2ccc(O)cc2OC)cc1O [CU086, (1E,6E)-1-(4-hydroxy-2-methoxyphenyl)-7-(3-hydroxy-4-methoxyphenyl)hepta-1,6-diene-3,5-dione] | 90 to 95 °C
COc1ccc(O)c(/C=C/C(=O)CC(=O)/C=C/c2ccc(O)c(OC)c2)c1 [CU088, (1E,6E)-1-(2-hydroxy-5-methoxyphenyl)-7-(4-hydroxy-3-methoxyphenyl)hepta-1,6-diene-3,5-dione] | 78 to 80 °C
COc1ccc(O)c(/C=C/C(=O)CC(=O)/C=C/c2ccc(OC)c(O)c2)c1 [CU089, (1E,6E)-1-(2-hydroxy-5-methoxyphenyl)-7-(3-hydroxy-4-methoxyphenyl)hepta-1,6-diene-3,5-dione] | 80 to 86 °C
O=C(/C=C/c1ccc(O)cc1)CC(=O)/C=C/c1cc(O)ccc1O [CU090, (1E,6E)-1-(2,5-dihydroxyphenyl)-7-(4-hydroxyphenyl)hepta-1,6-diene-3,5-dione] | 133 to 140 °C
COc1ccc(/C=C/C(=O)CC(=O)/C=C/c2cc(O)ccc2O)cc1O [CU091, (1E,6E)-1-(2,5-dihydroxyphenyl)-7-(3-hydroxy-4-methoxyphenyl)hepta-1,6-diene-3,5-dione] | 115 to 121 °C
COc1cc(/C=C/C(=O)CC(=O)/C=C/c2cc(O)cc(O)c2)ccc1O [CU093, (1E,6E)-1-(3,5-dihydroxyphenyl)-7-(4-hydroxy-3-methoxyphenyl)hepta-1,6-diene-3,5-dione] | 85 to 90 °C
COc1cc(/C=C/C(=O)CC(=O)/C=C/c2cccc(O)c2O)ccc1O [CU096, (1E,6E)-1-(2,3-dihydroxyphenyl)-7-(4-hydroxy-3-methoxyphenyl)hepta-1,6-diene-3,5-dione] | 82 to 89 °C
COc1cc(/C=C/C(=O)CC(=O)/C=C/c2ccc(O)cc2)cc(OC)c1 [CU099, (1E,6E)-1-(3,5-dimethoxyphenyl)-7-(4-hydroxyphenyl)hepta-1,6-diene-3,5-dione] | 75 to 80 °C
COc1cc(/C=C/C(=O)CC(=O)/C=C/c2ccc(O)c(OC)c2)cc(OC)c1 [CU100, (1E,6E)-1-(3,5-dimethoxyphenyl)-7-(4-hydroxy-3-methoxyphenyl)hepta-1,6-diene-3,5-dione] | 50 to 55 °C

Second part, the compound after the results:

melting point | Structure (SMILES)
187 to 193 °C | COc1cc(/C=C/C(=O)CC(=O)/C=C/c2ccc(OC)c(O)c2)cc(OC)c1 [CU101, (1E,6E)-1-(3,5-dimethoxyphenyl)-7-(3-hydroxy-4-methoxyphenyl)hepta-1,6-diene-3,5-dione]
165 to 170 °C | COc1cccc(OC)c1/C=C/C(=O)CC(=O)/C=C/c1ccc(O)cc1 [CU102, (1E,6E)-1-(2,6-dimethoxyphenyl)-7-(4-hydroxyphenyl)hepta-1,6-diene-3,5-dione]
136 to 139 °C | COc1cc(/C=C/C(=O)CC(=O)/C=C/c2c(OC)cccc2OC)ccc1O [CU103, (1E,6E)-1-(2,6-dimethoxyphenyl)-7-(4-hydroxy-3-methoxyphenyl)hepta-1,6-diene-3,5-dione]
78 to 85 °C | COc1ccc(/C=C/C(=O)CC(=O)/C=C/c2ccc(O)c(OC)c2)cc1O [CU105, (1E,6E)-1-(3-hydroxy-4-methoxyphenyl)-7-(4-hydroxy-3-methoxyphenyl)hepta-1,6-diene-3,5-dione]
125 to 130 °C | COc1cc(/C=C/C(=O)CC(=O)/C=C/c2cc(O)ccc2O)ccc1O [CU106, (1E,6E)-1-(2,5-dihydroxyphenyl)-7-(4-hydroxy-3-methoxyphenyl)hepta-1,6-diene-3,5-dione]
100 to 103 °C | CCn1c2ccccc2c2cc(/C=C/C(=O)CC(=O)/C=C/c3ccc(OC)c(O)c3)ccc21 [CU108, (1E,6E)-1-(9-ethyl-9H-carbazol-3-yl)-7-(3-hydroxy-4-methoxyphenyl)hepta-1,6-diene-3,5-dione]
150 to 155 °C | COc1ccc(/C=C/C(=O)CC(=O)/C=C/c2c(OC)ccc3ccccc23)cc1O [CU117, (1E,6E)-1-(3-hydroxy-4-methoxyphenyl)-7-(2-methoxynaphthalen-1-yl)hepta-1,6-diene-3,5-dione]
193 to 196 °C | COc1cc(/C=C/C(=O)CC(=O)/C=C/c2ccc(OC)c3ccccc23)ccc1O [CU118, (1E,6E)-1-(4-hydroxy-3-methoxyphenyl)-7-(4-methoxynaphthalen-1-yl)hepta-1,6-diene-3,5-dione]
82 to 86 °C | CN(C)c1ccc(/C=C/C(=O)CC(=O)/C=C/c2ccc(O)cc2)c2ccccc12 [CU119, (1E,6E)-1-(4-dimethylaminonaphthalen-1-yl)-7-(4-hydroxyphenyl)hepta-1,6-diene-3,5-dione]
169 to 173 °C | Cn1cccc1/C=C/C(=O)CC(=O)/C=C/c1ccc(O)cc1 [CU120, (1E,6E)-1-(4-hydroxyphenyl)-7-(1-methyl-1H-pyrrol-2-yl)hepta-1,6-diene-3,5-dione]
185 to 190 °C | Cn1cc(/C=C/C(=O)CC(=O)/C=C/c2ccc(O)cc2)c2ccccc21 [CU123, (1E,6E)-1-(4-hydroxyphenyl)-7-(1-methyl-1H-indol-3-yl)hepta-1,6-diene-3,5-dione]
173 to 175 °C | COc1cc(/C=C/C(=O)CC(=O)/C=C/c2cn(C)c3ccccc23)ccc1O [CU124, (1E,6E)-1-(4-hydroxy-3-methoxyphenyl)-7-(1-methyl-1H-indol-3-yl)hepta-1,6-diene-3,5-dione]
162 to 166 °C | COc1ccc(/C=C/C(=O)CC(=O)/C=C/c2cn(C)c3ccccc23)cc1O [CU125, (1E,6E)-1-(3-hydroxy-4-methoxyphenyl)-7-(1-methyl-1H-indol-3-yl)hepta-1,6-diene-3,5-dione]
208 to 213 °C | Cn1c(/C=C/C(=O)CC(=O)/C=C/c2ccc(O)cc2)cc2ccccc21 [CU126, (1E,6E)-1-(4-hydroxyphenyl)-7-(1-methyl-1H-indol-2-yl)hepta-1,6-diene-3,5-dione]
131 to 138 °C | O=C(/C=C/c1ccc(O)cc1)CC(=O)/C=C/c1ccc(O)cc1Cl [CU127, (1E,6E)-1-(2-chloro-4-hydroxyphenyl)-7-(4-hydroxyphenyl)hepta-1,6-diene-3,5-dione]
185 to 193 °C | COc1ccc(/C=C/C(=O)CC(=O)/C=C/c2cc3ccccc3n2C)cc1O [CU128, (1E,6E)-1-(3-hydroxy-4-methoxyphenyl)-7-(1-methyl-1H-indol-2-yl)hepta-1,6-diene-3,5-dione]
185 to 192 °C | COc1cc(/C=C/C(=O)CC(=O)/C=C/c2ccc(O)cc2Cl)ccc1O [CU129, (1E,6E)-1-(2-chloro-4-hydroxyphenyl)-7-(4-hydroxy-3-methoxyphenyl)hepta-1,6-diene-3,5-dione]
120 to 130 °C | COc1ccc(/C=C/C(=O)CC(=O)/C=C/c2ccc(O)cc2Cl)cc1O [CU130, (1E,6E)-1-(2-chloro-4-hydroxyphenyl)-7-(3-hydroxy-4-methoxyphenyl)hepta-1,6-diene-3,5-dione]
